Values of other authors as cited in patent US20020010550A1, “PHARMACOKINETIC-BASED DRUG DESIGN TOOL AND METHOD” (priority 1998, published 2002).
Like-named read-outs stand apart in the source and are kept apart here.

Assays:
[1] = tested on: rabbit intestinal tissue (duodenum, jejunum, ileum, colon); settings: donor concentration given with each compound
[2] = tested on: intestinal transport; settings: permeability standards
[3] = Plasma Kinetics
[4] = human

SMILES	Pe ([1]; Colon) [×10⁻⁶ cm/s]	Pe ([1]; Duodenum) [×10⁻⁶ cm/s]	Pe ([1]; Ileum) [×10⁻⁶ cm/s]	Pe ([1]; Jejunum) [×10⁻⁶ cm/s]	Transport mechanism [2]	Fluid Volume [3]	k12 [3]	k21 [3]	kelim [3]	bioavailability of fasted patients in clinical trials ([4]; fasted, oral)	absorption ([4]; in vivo)	in vivo biotransformation ([4]; in vivo)
O=C[C@H](O)[C@@H](O)[C@H](O)[C@H](O)CO [D-glucose]	9.28	4.55	14.5	10.2	Carrier-mediated Influx	–	–	–	–	–	–	–
Nc1nc2c(ncn2COC(CO)CO)c(=O)[nH]1.[Na] [Gancyclovir, 9-(1,3-dihydroxy-2-propoxymethyl)guanine, monosodium salt]	–	–	–	–	–	76,800 ml	0.839	0.670	0.161	3-20%	poorly absorbed	no in vivo biotransformation
C[C@]12CCC(=O)C=C1CC[C@@H]1[C@@H]2[C@@H](O)C[C@@]2(C)[C@H]1CC[C@]2(O)C(=O)CO [hydrocortisone]	3.85	0.3	2.91	1.31	–	–	–	–	–	–	–	–
OC[C@@H](O)[C@@H](O)[C@H](O)[C@H](O)CO [mannitol]	5.53	1.73	4.02	3.54	Passive Paracellular	–	–	–	–	–	–	–
